Reference: US11524966B1 (Valo Early Discovery, Inc., priority 2017, dated 2022)
pIC50: −log10 of the molar value.

These compounds were tested against T1, USP25 (USP25-His6, Boston Biochem E-546) (Homo sapiens, UniProt Q9UHP3) (assay: Ubiquitin-Rhodamine 110 Assay for USP25 Activity, Example A-2). Details: Ubiquitin-Rhodamine 110 assay, Example A-2; read-out: USP25 A-2 IC50 range.
T1 construct: His6; purchased Boston Biochem E-546
T1 sequence (Q9UHP3 1-1055): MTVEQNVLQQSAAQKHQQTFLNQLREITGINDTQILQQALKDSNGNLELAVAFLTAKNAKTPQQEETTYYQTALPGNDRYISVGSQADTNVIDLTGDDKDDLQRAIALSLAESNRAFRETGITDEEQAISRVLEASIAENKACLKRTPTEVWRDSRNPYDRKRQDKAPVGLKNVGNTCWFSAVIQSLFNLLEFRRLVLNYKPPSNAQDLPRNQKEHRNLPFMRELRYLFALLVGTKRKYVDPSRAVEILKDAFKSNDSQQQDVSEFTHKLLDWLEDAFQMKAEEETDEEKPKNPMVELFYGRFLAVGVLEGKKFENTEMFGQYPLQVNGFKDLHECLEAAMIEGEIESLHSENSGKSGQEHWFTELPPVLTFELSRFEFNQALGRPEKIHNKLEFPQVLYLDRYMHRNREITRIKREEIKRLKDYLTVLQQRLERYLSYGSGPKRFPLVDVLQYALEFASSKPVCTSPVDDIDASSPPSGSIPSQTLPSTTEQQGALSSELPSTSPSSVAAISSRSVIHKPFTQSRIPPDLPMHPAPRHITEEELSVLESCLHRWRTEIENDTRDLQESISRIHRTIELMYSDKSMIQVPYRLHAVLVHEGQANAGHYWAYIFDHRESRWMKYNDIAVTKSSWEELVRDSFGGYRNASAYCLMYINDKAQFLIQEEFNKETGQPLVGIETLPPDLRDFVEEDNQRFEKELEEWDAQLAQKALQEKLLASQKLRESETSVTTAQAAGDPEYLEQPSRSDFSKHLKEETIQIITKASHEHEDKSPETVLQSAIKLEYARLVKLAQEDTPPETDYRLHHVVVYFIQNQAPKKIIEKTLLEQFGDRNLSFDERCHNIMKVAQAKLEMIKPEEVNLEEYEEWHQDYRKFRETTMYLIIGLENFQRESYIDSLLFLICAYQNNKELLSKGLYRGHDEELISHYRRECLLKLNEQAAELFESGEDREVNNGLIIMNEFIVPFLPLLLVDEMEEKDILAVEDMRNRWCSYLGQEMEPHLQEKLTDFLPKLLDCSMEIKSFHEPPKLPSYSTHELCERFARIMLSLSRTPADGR
Assay type: biochemical
Summary of the method: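 Fluorescence (ex 485, em 535 nm) of cleaved ubiquitin-rhodamine 110 (25 nM, below Km) gave IC50 via 4-parameter logistic fit. Reaction: 45 min, room temperature, citric acid stop, after 30 min compound preincubation with 75 pM USP25-His6 in 20 mM Tris pH 8.0, 3 mM BME, 0.03% BGG, 0.01% Triton X-100; top dose 25 μM.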
Cc1ccc2c(N)c(C(=O)N[C@H]3CCc4nc(N5CC[C@@H]6CNC[C@@H]65)ccc4C3)sc2n1 [Example 217, N-[(6S)-2-[(3aR,6aR)-octahydropyrrolo[2,3-c]pyrrol-1-yl]-5,6,7,8-tetrahydroquinolin-6-yl]-3-amino-6-methylthieno[2,3-b]pyridine-2-carboxamide] showed a pIC50 of 6.70 to 7.30. Compound N#Cc1c(N2CC3CCC(C2)N3)cc(F)c2c1OC[C@H](NC(=O)c1cnc3c(c1)[C@@H]1C[C@@H]1CN3)C2 [Example 228, (6aS,7aR)-N-[(3R)-8-cyano-7-{3,8-diazabicyclo[3.2.1]octan-3-yl}-5-fluoro-3,4-dihydro-2H-1-benzopyran-3-yl]-5H,6H,6aH,7H,7aH-cyclopropa[c]1,8-naphthyridine-2-carboxamide] has a pIC50 of 5.70 to 6.70. With N#Cc1c(N2CC3CCC(C2)N3)cc(F)c2c1CC[C@H](NC(=O)c1cnc3c(c1)[C@H]1C[C@H]1CN3)C2 [Example 196, (6aR,7aS)-N-[(2S)-5-cyano-6-{3,8-diazabicyclo[3.2.1]octan-3-yl}-8-fluoro-1,2,3,4-tetrahydronaphthalen-2-yl]-5H,6H,6aH,7H,7aH-cyclopropa[c]1,8-naphthyridine-2-carboxamide] the pIC50 was under 5.70. Cc1ccc2c(N)c(C(=O)N[C@H]3COc4cc(N5C[C@@H](N)C(F)(F)C5)ccc4C3)sc2n1 [Example 257, 3-amino-N-[(3R)-7-[(4R)-4-amino-3,3-difluoropyrrolidin-1-yl]-3,4-dihydro-2H-1-benzopyran-3-yl]-6-methylthieno[2,3-b]pyridine-2-carboxamide] was tested, and the pIC50 was 6.70 to 7.30. N#Cc1c(N2CC3CCC(C2)N3)cc(F)c2c1OC[C@H](NC(=O)c1cnc3c(c1)[C@H]1C[C@H]1CN3)C2 [Example 229, (6aR,7aS)-N-[(3R)-8-cyano-7-{3,8-diazabicyclo[3.2.1]octan-3-yl}-5-fluoro-3,4-dihydro-2H-1-benzopyran-3-yl]-5H,6H,6aH,7H,7aH-cyclopropa[c]1,8-naphthyridine-2-carboxamide] showed a pIC50 of under 5.70. CO[C@]1(C)CN(c2ccc3c(n2)CC[C@H](NC(=O)c2sc4nc(C)ccc4c2N)C3)C[C@H]1N [Example 211, 3-amino-N-[(6S)-2-[(3R,4R)-4-amino-3-methoxy-3-methylpyrrolidin-1-yl]-5,6,7,8-tetrahydroquinolin-6-yl]-6-methylthieno[2,3-b]pyridine-2-carboxamide] gave a pIC50 of under 5.70. Work on O=C(N[C@H]1CCc2cc(N3CC4CCC(C3)N4)cc(F)c2C1)c1cnc2c(c1)[C@@H]1C[C@@H]1CN2 [Example 191, (6aS,7aR)-N-[(2S)-6-{3,8-diazabicyclo[3.2.1]octan-3-yl}-8-fluoro-1,2,3,4-tetrahydronaphthalen-2-yl]-5H,6H,6aH,7H,7aH-cyclopropa[c]1,8-naphthyridine-2-carboxamide] yielded a pIC50 of under 5.70. With Cc1ccc2c(N)c(C(=O)N[C@H]3COc4cc(N5C[C@@H](N)CC[C@H]5C(F)(F)F)ccc4C3)sc2n1 [Example 245, 3-amino-N-[(3R)-7-[(2S,5S)-5-amino-2-(trifluoromethyl)piperidin-1-yl]-3,4-dihydro-2H-1-benzopyran-3-yl]-6-methylthieno[2,3-b]pyridine-2-carboxamide] the pIC50 was 6.70 to 7.30. Compound Cc1ccc2c(N)c(C(=O)N[C@H]3CCc4nc(N5CC[C@H]6CNC[C@H]65)ccc4C3)sc2n1 [Example 216, N-[(6S)-2-[(3aS,6aS)-octahydropyrrolo[2,3-c]pyrrol-1-yl}-5,6,7,8-tetrahydroquinolin-6-yl]-3-amino-6-methylthieno[2,3-b]pyridine-2-carboxamide] has a pIC50 of 5.70 to 6.70. In the case of Cc1ccc2c(N)c(C(=O)N[C@H]3COc4cc(N5C[C@@H](N)C(C)(C)C5)ccc4C3)sc2n1 [Example 215, 3-amino-N-[(3R)-7-[(4S)-4-amino-3,3-dimethylpyrrolidin-1-yl]-3,4-dihydro-2H-1-benzopyran-3-yl]-6-methylthieno[2,3-b]pyridine-2-carboxamide], the pIC50 was 6.70 to 7.30. With CO[C@H]1CN(c2ccc3c(c2)CC[C@H](NC(=O)c2cnc4c(c2)[C@@H]2C[C@@H]2CN4)C3)C[C@@H]1N [Example 189, (6aS,7aR)-N-[(2S)-6-[(3S,4S)-3-amino-4-methoxypyrrolidin-1-yl]-1,2,3,4-tetrahydronaphthalen-2-yl]-5H,6H,6aH,7H,7aH-cyclopropa[c]1,8-naphthyridine-2-carboxamide] the pIC50 was under 5.70. Work on O=C(N[C@@H]1CCc2cc(N3CC4CCC(C3)N4)cc(F)c2C1)c1cnc2c(c1)[C@@H]1C[C@@H]1CN2 [Example 193, (6aS,7aR)-N-[(2R)-6-{3,8-diazabicyclo[3.2.1]octan-3-yl}-8-fluoro-1,2,3,4-tetrahydronaphthalen-2-yl]-5H,6H,6aH,7H,7aH-cyclopropa[c]1,8-naphthyridine-2-carboxamide] yielded a pIC50 of under 5.70. Work on CO[C@H]1CN(c2ccc3c(n2)CC[C@H](NC(=O)c2sc4nc(C)c(F)cc4c2N)C3)C[C@@H]1N [Example 203, 3-amino-N-[(6S)-2-[(3S,4S)-3-amino-4-methoxypyrrolidin-1-yl]-5,6,7,8-tetrahydroquinolin-6-yl}-5-fluoro-6-methylthieno[2,3-b]pyridine-2-carboxamide] yielded a pIC50 of under 5.70. In the case of COC[C@H]1CN(c2ccc3c(c2)CC[C@H](NC(=O)c2sc4nc(C)ccc4c2N)C3)C[C@H]1N [Example 253, 3-amino-N-[(2S)-6-[(3S,4S)-3-amino-4-(methoxymethyl)pyrrolidin-1-yl]-1,2,3,4-tetrahydronaphthalen-2-yl]-6-methylthieno[2,3-b]pyridine-2-carboxamide], the pIC50 was 5.70 to 6.70. Compound Cc1ccc2c(N)c(C(=O)N[C@H]3COc4cc(N5CC[C@H]6CC[C@@H](N)C[C@H]65)ccc4C3)sc2n1 [Example 231, N-[(3R)-7-[(3aR,6R,7aR)-6-amino-octahydro-1H-indol-1-yl]-3,4-dihydro-2H-1-benzopyran-3-yl]-3-amino-6-methylthieno[2,3-b]pyridine-2-carboxamide] has a pIC50 of 7.30 to 9.00. Cc1ccc2c(N)c(C(=O)N[C@H]3COc4cc(N5CCO[C@@H]6CNC[C@@H]65)ccc4C3)sc2n1 [Example 185, N-[(3R)-7-[(4aS,7aR)-octahydropyrrolo[3,4-b]morpholin-4-yl]-3,4-dihydro-2H-1-benzopyran-3-yl]-3-amino-6-methylthieno[2,3-b]pyridine-2-carboxamide] showed a pIC50 of 6.70 to 7.30. Work on Cc1ccc2c(N)c(C(=O)N[C@H]3COc4cc(N5CC6CCC[C@]6(N)C5)ccc4C3)sc2n1 (stereo partly drawn) [Example 249, N-[(3R)-7-[(3aR)-3a-amino-octahydrocyclopenta[c]pyrrol-2-yl]-3,4-dihydro-2H-1-benzopyran-3-yl]-3-amino-6-methylthieno[2,3-b]pyridine-2-carboxamide] yielded a pIC50 of 6.70 to 7.30. Compound Cc1ccc2c(N)c(C(=O)N[C@H]3COc4cc(N5C[C@@H](N)CC[C@@H]5C(F)(F)F)ccc4C3)sc2n1 [Example 246, 3-amino-N-[(3R)-7-[(2R,5S)-5-amino-2-(trifluoromethyl)piperidin-1-yl]-3,4-dihydro-2H-1-benzopyran-3-yl]-6-methylthieno[2,3-b]pyridine-2-carboxamide] has a pIC50 of 7.30 to 9.00. With CCO[C@H]1CN(c2ccc3c(n2)CC[C@H](NC(=O)c2sc4nc(C)ccc4c2N)C3)C[C@H]1N [Example 255, 3-amino-N-[(6S)-2-[(3R,4S)-3-amino-4-ethoxypyrrolidin-1-yl]-5,6,7,8-tetrahydroquinolin-6-yl]-6-methylthieno[2,3-b]pyridine-2-carboxamide] the pIC50 was under 5.70. Work on Cc1ccc2c(N)c(C(=O)N[C@H]3COc4cc(N5CC[C@H]6CCNC[C@H]65)ccc4C3)sc2n1 [Example 224, N-[(3R)-7-[(3aR,7aS)-octahydro-1H-pyrrolo[2,3-c]pyridin-1-yl]-3,4-dihydro-2H-1-benzopyran-3-yl]-3-amino-6-methylthieno[2,3-b]pyridine-2-carboxamide] yielded a pIC50 of 6.70 to 7.30. In the case of Cc1cc(C)c2c(N)c(C(=O)N[C@H]3COc4c(C#N)c(N5CC6CCC(C5)N6)cc(F)c4C3)sc2n1 [Example 230, 3-amino-N-[(3R)-8-cyano-7-{3,8-diazabicyclo[3.2.1]octan-3-yl}-5-fluoro-3,4-dihydro-2H-1-benzopyran-3-yl]-4,6-dimethylthieno[2,3-b]pyridine-2-carboxamide], the pIC50 was 5.70 to 6.70. With Cc1ccc2c(N)c(C(=O)N[C@@H]3Cc4ccc(N5CCNCC5)nc4[C@H](C)C3)sc2n1 [Example 207, 3-amino-6-methyl-N-[(6S,8R)-8-methyl-2-(piperazin-1-yl)-5,6,7,8-tetrahydroquinolin-6-yl]thieno[2,3-b]pyridine-2-carboxamide] the pIC50 was under 5.70.
